ChEMBL document CHEMBL4330144, “A mitochondria-targeted organic arsenical accelerates mitochondrial metabolic disorder and function injury” (Bioorg Med Chem, 2019)
Active and inactive are the calls of the source. The calls are words filed in the database; no cut-off is given here.

Legend:
[1] = tested on: NB-4; assay: Induction of apoptosis in human NB4 cells assessed as live cells after 24 hrs in presence of Z-VAD-fmk by Annexin V-FITC/propidium iodide staining based flow cytometry (reference value: 92%); assay type: functional
[2] = target: T1, Dihydrolipoyllysine-residue acetyltransferase component of pyruvate dehydrogenase complex, mitochondrial (Homo sapiens) (UniProt P10515); assay: Inhibition of PDHC-E2 activity in human NB4 cells up to 2.4 uM after 3 hrs; assay type: cell-based
T1 sequence (whole entry): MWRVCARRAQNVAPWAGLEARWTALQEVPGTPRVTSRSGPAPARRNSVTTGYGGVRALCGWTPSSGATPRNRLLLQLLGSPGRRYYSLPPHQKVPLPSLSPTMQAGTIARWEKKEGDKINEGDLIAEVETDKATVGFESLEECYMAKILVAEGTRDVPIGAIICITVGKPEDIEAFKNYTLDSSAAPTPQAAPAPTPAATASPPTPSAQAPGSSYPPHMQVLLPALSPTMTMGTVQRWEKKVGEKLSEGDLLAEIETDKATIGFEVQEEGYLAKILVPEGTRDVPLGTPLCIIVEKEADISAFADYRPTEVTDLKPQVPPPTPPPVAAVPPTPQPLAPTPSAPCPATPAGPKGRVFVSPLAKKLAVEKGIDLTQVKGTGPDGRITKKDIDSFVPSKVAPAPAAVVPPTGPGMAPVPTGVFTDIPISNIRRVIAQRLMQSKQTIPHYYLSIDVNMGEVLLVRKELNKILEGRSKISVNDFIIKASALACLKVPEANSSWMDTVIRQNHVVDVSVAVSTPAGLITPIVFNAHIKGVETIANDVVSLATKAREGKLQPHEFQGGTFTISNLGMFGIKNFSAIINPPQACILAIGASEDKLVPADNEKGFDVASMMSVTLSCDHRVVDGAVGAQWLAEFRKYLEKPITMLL

[3] = species on record: Rattus norvegicus; assay: Induction of mitochondrial membrane potential loss in isolated Wistar rat mitochondria assessed as maximum power output at 100 uM using pyruvate as substrate up to 3 hrs by microcalorimetry; assay type: functional
[4] = tested on: NB-4; assay: Induction of apoptosis in human NB4 cells assessed as decrease in cell size at 0.6 to 1.2 uM after 24 hrs by Hoechst 33342/propidium iodide staining based confocal microscopic method; assay type: functional
[5] = species on record: Rattus norvegicus; assay: Inhibition of ETC4 in isolated Wistar rat mitochondria assessed as decrease in cyochrome-c oxidation at 5 to 15 uM incubated for 3 to 5 mins and measured for up to 3 mins
[6] = species on record: Rattus norvegicus; assay: Induction of mitochondrial swelling in isolated Wistar rat mitochondria at 30 uM in presence of cyclosporin-A; assay type: functional
[7] = tested on: NB-4; assay: Cytotoxicity against human NB4 cells after 24 hrs by MTT assay; assay type: functional, cell-based; details: NB-4, 24 h
[8] = tested on: NB-4; assay: Reduction in cell viability in human NB4 cells up to 2.4 uM up to 24 hrs by MTT assay; assay type: functional, cell-based
[9] = tested on: NB-4; assay: Reduction in cell viability in human NB4 cells up to 1.6 uM up to 24 hrs by MTT assay; assay type: functional, cell-based
[10] = species on record: Rattus norvegicus; assay: Induction of mitochondrial membrane potential loss in isolated Wistar rat mitochondria assessed as stationary increase phase rate constant at 25 uM using pyruvate as substrate up to 3 hrs by microcalorimetry (reference value: 1 to 1.18 10^-3/min); assay type: functional
[11] = tested on: NB-4; assay: Induction of apoptosis in human NB4 cells assessed as nuclear condensation at 0.6 to 1.2 uM after 24 hrs by Hoechst 33342/propidium iodide staining based confocal microscopic method; assay type: functional, cell-based
[12] = species on record: Rattus norvegicus; assay: Induction of inner mitochondrial membrane permeabilization in isolated Wistar rat mitochondria assessed as K+ permeabilization at 5 to 75 uM measured for 10 to 30 mins; assay type: functional
[13] = tested on: HeLa; assay: Cytotoxicity against human HeLa cells after 48 hrs by MTT assay; assay type: functional, cell-based
[14] = tested on: NB-4; assay: Induction of apoptosis in human NB4 cells assessed as early apoptotic cells after 24 hrs in presence of Z-VAD-fmk by Annexin V-FITC/propidium iodide staining based flow cytometry (reference value: 5%); assay type: functional
[15] = tested on: NB-4; assay: Cytotoxicity against human NB4 cells assessed as reduction in cell viability at 1 to 1.2 uM after 24 hrs in presence of DTT by trypan blue assay; assay type: functional, cell-based
[16] = tested on: NB-4; assay: Induction of apoptosis in human NB4 cells assessed as early apoptotic cells after 24 hrs by Annexin V-FITC/propidium iodide staining based flow cytometry (reference value: 5%); assay type: functional
[17] = tested on: NB-4; assay: Induction of apoptosis in human NB4 cells assessed as late apoptotic cells after 24 hrs in presence of Z-VAD-fmk by Annexin V-FITC/propidium iodide staining based flow cytometry (reference value: 2.9%); assay type: functional
[18] = species on record: Rattus norvegicus; assay: Induction of mitochondrial membrane potential loss in isolated Wistar rat mitochondria assessed as decline phase rate constant at 25 uM using pyruvate as substrate up to 3 hrs by microcalorimetry (reference value: -24.13 to -20.47 10^-3/min); assay type: functional
[19] = tested on: NB-4; assay: Induction of apoptosis in human NB4 cells assessed as late apoptotic cells after 24 hrs in presence of Nec-1 by Annexin V-FITC/propidium iodide staining based flow cytometry (reference value: 2.9%); assay type: functional
[20] = species on record: Rattus norvegicus; assay: Induction of mitochondrial membrane potential loss in isolated Wistar rat mitochondria assessed as maximum power output time at 50 uM using pyruvate as substrate up to 3 hrs by microcalorimetry; assay type: functional
[21] = tested on: HL-60; assay: Cytotoxicity against human HL60 cells after 24 hrs by MTT assay; assay type: functional, cell-based; details: HL-60, 24 h
[22] = species on record: Rattus norvegicus; assay: Induction of mitochondrial membrane potential loss in isolated Wistar rat mitochondria assessed as activity recovery phase rate constant at 50 uM using pyruvate as substrate up to 3 hrs by microcalorimetry; assay type: functional
[23] = tested on: NB-4; assay: Cytotoxicity against human NB4 cells assessed as reduction in cell viability at 1 to 1.2 uM after 24 hrs in presence of DMP by trypan blue assay; assay type: functional, cell-based
[24] = tested on: NB-4; assay: Induction of mitochondrial membrane potential loss in human NB4 cells at 0.3 to 2.4 uM after 24 hrs by JC-1 staining based confocal microscopic method; assay type: functional, cell-based
[25] = species on record: Rattus norvegicus; assay: Induction of mitochondrial membrane potential loss in isolated Wistar rat mitochondria assessed as total heat output at 50 uM using pyruvate as substrate up to 3 hrs by microcalorimetry; assay type: functional
[26] = species on record: Rattus norvegicus; assay: Induction of mitochondrial membrane potential loss in isolated Wistar rat mitochondria assessed as total heat output at 25 uM using pyruvate as substrate up to 3 hrs by microcalorimetry (reference value: 10.32 to 10.36 J); assay type: functional
[27] = tested on: SGC-7901; assay: Cytotoxicity against human SGC7901 cells after 48 hrs by MTT assay; assay type: functional, cell-based; details: SGC-7901, 48 h
[28] = species on record: Rattus norvegicus; assay: Induction of mitochondrial membrane potential loss in isolated Wistar rat mitochondria assessed as activity recovery phase rate constant at 25 uM using pyruvate as substrate up to 3 hrs by microcalorimetry (reference value: 5.15 to 7.33 10^-3/min); assay type: functional
[29] = species on record: Rattus norvegicus; assay: Induction of mitochondrial membrane potential loss in isolated Wistar rat mitochondria assessed as decline phase rate constant at 50 uM using pyruvate as substrate up to 3 hrs by microcalorimetry; assay type: functional
[30] = species on record: Rattus norvegicus; assay: Induction of mitochondrial membrane potential loss in isolated Wistar rat mitochondria assessed as maximum power output time at 100 uM using pyruvate as substrate up to 3 hrs by microcalorimetry; assay type: functional

O=C(CC[P+](c1ccccc1)(c1ccccc1)c1ccccc1)Nc1ccc([As]2SCCCS2)cc1.[Cl-]
Activity [1]: 81.9%
inhibition [2]: Active
Activity [3]: 112 W
Activity [4]: Active
inhibition [5]: Active
Activity [6]: inactive
IC50 [7]: 650 nM
Activity [8]: Active
Activity [9]: Active
K [10]: 0.72 ×10⁻³ /min
Activity [11]: Active
Activity [12]: Active
IC50 [13]: 3910 nM
Activity [14]: 12.7%
Activity [15]: inactive
Activity [16]: 13.1%
Activity [17]: 5.2%
K [18]: -14.1 ×10⁻³ /min
Activity [19]: 16.2%
TIME [20]: 47.6 h
IC50 [21]: 3580 nM
K [22]: 4.82 ×10⁻³ /min
Activity [23]: inactive
Activity [24]: Active
Activity [25]: 10.2 J
Activity [26]: 10.8 J
IC50 [27]: 990 nM
K [28]: 3.82 ×10⁻³ /min
K [29]: -9.35 ×10⁻³ /min
TIME [30]: 51.8 h
